For data set [1], the target named is T1, Pin1 (Homo sapiens, UniProt Q13526).
T1 construct: endogenous in cells; host or cells: 293T cells
Put plainly: Cell-based evaluation of Pin1 inhibition activity with AMPK phosphorylation level as index (293T cells, Western blot). Also noted: key: +++: a higher level of AMPK phosphorylation is promoted, as compared with C1; ++: a similar level of AMPK phosphorylation is promoted, as compared with C1; +: a lower level of AMPK phosphorylation is promoted, as compared with C1; −: no or almost no promotion is found in AMPK phosphorylation. As to conditions: compound at 100 μM, 30 minutes, then 10 mM 2-DG for one hour, pAMPK level compared with C1. The method, then:
To evaluate the inhibitory activity of each compound synthesized in Example 1 against the function of Pin1, a cell-based assay was performed according to the method previously developed by the inventors (Yusuke Nakatsu et al., Journal of Biological Chemistry, 2015, Vol. 290, No. 40, pp. 24255-24266), in which the phosphorylation level of AMPK (AMP-activated protein kinase), a protein whose phosphorylation is inhibited by Pin1, was examined as an index.
Briefly, 293T cells were plated on a collagen-coated 24-well plate. Forty-eight hours later, each compound synthesized in the preceding example (at 100 μM) was added to the plate, and the plate was left to stand in an incubator for 30 minutes. Subsequently, 10 mM 2-DG was added to the plate, and one hour later, each sample was collected with a buffer containing mercaptoethanol and SDS.
SDS-PAGE and blotting were performed, and blocking was then performed with 3% BSA for 1 hour, according to conventional protocols. Subsequently, a pAMPK antibody (Cell Signaling; diluted 1:2000 in Can Get Signal Solution 1, Toyobo) as a primary antibody, and an HRP-linked anti rabbit IgG (GE Healthcare; diluted 1:4000 in Can Get Signal Solution 2, Toyobo) as a secondary antibody were allowed to react at ambient temperature for 1 hour prior to detection.
The inhibitory activity against the function of Pin1 was evaluated by comparing the inhibition levels between each compound and a known Pin1 inhibitor, C1, as indicated below:
(+++): a higher level of AMPK phosphorylation is promoted, as compared with C1;
(++): a similar level of AMPK phosphorylation is promoted, as compared with C1;
(+): a lower level of AMPK phosphorylation is promoted, as compared with C1;
(−): no or almost no promotion is found in AMPK phosphorylation.

Data set [2] concerns DU145 cells. Put plainly: Cancer treatment study in nude mice implanted with DU145 tumors. To be noted: intraperitoneal 2.5 mg/kg/day 5 times a week for 9 weeks, versus control mice. The format is in vivo, nude mice (BALB/c-slc-nu/nu mice). The procedure:
An animal experiment was performed using mice transplanted with cancer cells to test the therapeutic effects of the compounds according to the present invention on cancer.
A first tumor (DU145 cells) with Matrigel plug was implanted in the middle of the upper back of nude mice (BALB/c-slc-nu/nu mice).
Five weeks after the first implantation, a second tumor (DU145 cells) was implanted in the middle of the left and right sides of the back of the nude mice.
Intraperitoneal administration of a compound according to the present invention, H-77, at a dose of 2.5 mg/kg/day and a frequency of 5 times a week was started 6 weeks after the first implantation, at which the first tumor became measurable (at this timing, the second tumor was so small in size and not measurable), and was continued for 9 weeks. No compound was administered to a group of mice to prepare control mice.
The volume of the second tumor was so small and not measurable at the beginning of administration of the compound. Therefore, the result from the second tumor is expressed in volume (mm^3), but not in ratio.

The test system of data set [3] is non-alcoholic steatohepatitis (NASH) model mice (HFDT). As to conditions: intraperitoneal 2.5 mg/kg/day three times a week. The method, then:
Animal experiments were performed using non-alcoholic steatohepatitis (NASH) model mice to test the compounds according to the present invention for the therapeutic effect on NASH.
NASH model mice (hereinafter referred to as “NASH mice”) were produced by feeding a high-fat diet containing trans fatty acids (HFDT) to individual male laboratory mice (C57BL/6J) for 8 weeks. The mice were divided into groups, and animal experiments were performed on a group of mice to which a compound according to the present invention (H-77) was administered intraperitoneally at a dose of 2.5 mg/kg/day three times a week, and a group of mice to which Juglone, a known Pin1 inhibitor, was administered intraperitoneally at a dose of 2.5 mg/kg/day three times a week, and a group of mice to which nothing was administered, during the 8-week HFDT feeding period. In addition, a normal diet was given to individual male laboratory mice (C57BL/6J) for 8 weeks to prepare control mice.

For data set [4], the system named is NASH mice (methionine-choline-deficient diet, MCDD). Put plainly: NASH treatment study in MCDD-fed NASH mice. The format is in vivo, mice (C57BL/6J). To be noted: NASH mice given MCDD for 8 weeks; intraperitoneal 2.5 mg/kg/day three times a week; FIG. 3. The procedure:
Next, an animal experiment was performed on NASH mice that were produced by feeding a methionine-choline-deficient diet (MCDD).

Molecules are shown by their SMILES.

T1 sequence (Q13526 whole entry): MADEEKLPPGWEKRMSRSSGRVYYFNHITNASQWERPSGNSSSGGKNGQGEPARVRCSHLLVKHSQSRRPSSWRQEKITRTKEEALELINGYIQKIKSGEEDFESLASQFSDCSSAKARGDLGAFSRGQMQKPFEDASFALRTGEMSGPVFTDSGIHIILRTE

In the case of `COC(=O)c1cc(OCc2ccccc2)ccc1NC(=O)c1ccc2ccccc2c1` [Compound H-68], the Pin1 inhibition activity entry in data set [1] is “+”.

As for `O=C(Nc1ccc(OCc2ccccc2)cc1C(=O)O)c1ccc2ccccc2c1` [Compound H-77], in data set [2] (first DU145 tumor, FIG. 4 (A)), the “tumor volume ratio of the first tumor” value is given as “tumor size growth was suppressed”. Besides, the “volume of the second tumor” value in data set [2] (second DU145 tumor, FIG. 4 (B)) is given as “tumor size growth was suppressed”. In data set [3] (NASH mice given HFDT for 8 weeks, FIG. 1 (A)), the liver weight result is “increase in liver weight was reduced”. The “blood AST (GOT) concentration” value in data set [3] (NASH mice given HFDT for 8 weeks, FIG. 1 (B)) was “AST value was decreased”. In addition, the “fat accumulation in liver tissue (microscopic observation of sections)” value in data set [3] (NASH mice given HFDT, FIG. 2) was “reduced fat accumulation”. In data set [1], the Pin1 inhibition activity result is recorded as “+++”. In addition, in data set [4], the “hepatic fibrosis (liver tissue sections with Azan staining)” value is “hepatic fibrosis was significantly inhibited”. Regarding `COC(=O)c1cc(OCc2ccc3ccccc3c2)ccc1NC(C)=O` [Compound H-182], the Pin1 inhibition activity result in data set [1] is “++”. On the same count and under the same terms, then `CC(=O)Nc1ccc(OCc2ccccc2)cc1C(=O)O` [Compound H-296, reference compound], with “−”; and `CC(=O)Nc1ccc(OCc2ccc3ccccc3c2)cc1C(=O)O` [Compound H-297], with “+++”; and `COC(=O)c1cc(OCc2ccc3ccccc3c2)ccc1N` [Compound H-300], with “+++”. On the same count and under the same terms, to `O=C(O)c1cc(OCc2ccccc2)ccc1NS(=O)(=O)c1ccc2ccccc2c1` [Compound H-338] belongs “+”; to `O=C(Nc1ccc(OCc2ccccc2)cc1C(=O)O)c1ccc2ccccc2n1` [Compound H-339], “+”.

In the case of `O=C(COc1ccc2ccccc2c1)Nc1ccc(OCc2ccccc2)cc1C(=O)O` [Compound H-362], the Pin1 inhibition activity result in data set [1] is on record as “+”. Same read-out and setting: then `O=C(Nc1ccc(OCc2ccccc2)cc1C(=O)O)c1cccc(Oc2ccccc2)c1` [Compound H-363], with “+”; and `O=C(O)c1cc(OCc2ccccc2)ccc1NC(=O)c1cccc2ccccc12` [Compound H-370], with “+”.

Consider `O=C(Nc1ccc(OCc2ccc3ccccc3c2)cc1C(=O)O)c1ccc2ccccc2c1` [Compound H-371], for which the Pin1 inhibition activity entry in data set [1] was “+”.

`O=C(O)c1cc(OCc2ccc3ccccc3c2)ccc1NS(=O)(=O)c1ccc2ccccc2c1` [Compound H-376]: in data set [1], the Pin1 inhibition activity result was “+”. Consider `Nc1ccc(OCc2ccc3ccccc3c2)cc1C(=O)O` [Compound H-443], for which the Pin1 inhibition activity result in data set [1] is reported as “+”. In the case of `O=C1C=CC(=O)c2c(O)cccc21` [Juglone, reference compound], in data set [3] (NASH mice given HFDT for 8 weeks), the “death of the mice during the study” value is reported as “all dead within 8 weeks”.
